Test results taken from patent publication EP1028948B1, “PHENYL-ALKYL-IMIDAZOLES AS H3 RECEPTOR ANTAGONISTS” (SCHERING CORPORATION, priority 1997, dated 1999).

Target: T1, H3 receptors (Cavia porcellus, UniProt Q9JI35)
T1 construct: The brain tissue was homogenized using a Polytron in a solution of 50 mM Tris, pH 7.5; from tissue; host or cells: guinea pig brain membranes
Assay: H3 Receptor Binding Assay
Details: guinea pig brain membranes; 3 nM [3H]R-α-methylhistamine or 3 nM [3H]Nα-methylhistamine; 30°C for 30 min
Description: The source of the H3 receptors in this experiment was guinea pig brain. The animals weighed 400-600 g. […] The final concentration of tissue in the homogenization buffer was 10% w/v. […] The membranes were frozen and stored at -70°C until needed.
Membranes were then added (400 µg of protein) to the reaction tubes. […] Bound ligand was separated from unbound ligand by filtration, and the amount of radioactive ligand bound to the membranes was quantitated by liquid scintillation spectrometry.

T1 sequence (Q9JI35 whole entry): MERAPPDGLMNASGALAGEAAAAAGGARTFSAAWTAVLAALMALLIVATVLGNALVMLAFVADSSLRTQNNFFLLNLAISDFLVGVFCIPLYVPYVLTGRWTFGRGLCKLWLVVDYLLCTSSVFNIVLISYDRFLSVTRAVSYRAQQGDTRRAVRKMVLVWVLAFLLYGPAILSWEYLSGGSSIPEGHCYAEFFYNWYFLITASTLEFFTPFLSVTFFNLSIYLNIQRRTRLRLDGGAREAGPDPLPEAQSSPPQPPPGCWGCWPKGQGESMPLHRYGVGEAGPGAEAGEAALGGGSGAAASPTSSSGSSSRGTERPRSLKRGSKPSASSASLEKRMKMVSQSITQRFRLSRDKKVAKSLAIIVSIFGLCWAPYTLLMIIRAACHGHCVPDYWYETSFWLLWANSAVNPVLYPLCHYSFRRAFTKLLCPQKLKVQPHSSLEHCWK

SMILES: O=C(/C=C/c1ccc(Cc2c[nH]cn2)cc1)NCCc1ccc(Cl)cc1 [Compound 3]
- Ki: 1 to 19 nM
